Data on one compound can be found in patent publication US10166302B2, “Labeling composition for cancer lesion” (NATIONAL CANCER CENTER, priority 2012, dated 2019).

Series [1] is described as follows: Signal intensity of near-infrared fluorescence of ICG-MAA complexes at various ICG and MAA mixing ratios. The format is physicochemical. The settings on record: for Signal intensity of near-infrared fluorescence: MAA 0 mg/ml.
The conditions of series [2]: 18 breast cancer patients (T. Kitai, et al., Breast Cancer, 12:211-215, 2005); cited from earlier work.

For the compound `CC1(C)C(/C=C/C=C/C=C/C=C2\N(CCCCS(=O)(=O)O)c3ccc4ccccc4c3C2(C)C)=[N+](CCCCS(=O)(=O)[O-])c2ccc3ccccc3c21` [ICG, indocyanine green], the “Signal intensity of near-infrared fluorescence” value is given as 289 in series [1] (ICG 9.0 μM); 363 in series [1] (ICG 12.9 μM); 466 in series [1] (ICG 25.8 μM); 425 in series [1] (ICG 38.7 μM); 399 in series [1] (ICG 51.6 μM); 374 in series [1] (ICG 64.5 μM). The “Signal intensity of near-infrared fluorescence” value in series [1] (ICG 77.4 μM) is 332; in series [1] (ICG 103 μM), 289; in series [1] (ICG 258 μM), 139; in series [1] (ICG 516 μM) it was 71; in series [1] (ICG 774 μM), 39; in series [1] (ICG 1032 μM) it was 30. For the same compound, the “ICG concentration showing the highest value of signal intensity of near-infrared fluorescence” value in series [1] (MAA was not treated) was 25.8 µM. Also, the Clinical safety entry in series [2] is “safely used”.
